The values below come from patent US20240245661A1, “MCT4-TARGETED THERAPEUTICS PREVENTING AKI TO CKD TRANSITION” (Northwestern University, priority 2023, published 2024).

“Also recorded” adds a separate entry of the source.

Experiment [1] concerns wild type (WT) C57BL/6 mice, post-ischemic (IR) kidney. The experiment is described as follows: Unilateral ischemia reperfusion injury (uIRI) model of AKI, post-ischemic treatment, wild type mice. It counts as in vivo, mouse. As to conditions: for reduction in fibrosis assessed by Picro Sirius red staining / perfusion of IR kidney (visual): 7.5 mg/kg IP on alternate days from day 2. On the procedure: Wild type (WT) C57BL/6 mice (7 week old) were procured by The Jackson Laboratory and acclimatized for 1 week at standard conditions (23° C.-25° C.; 40-60% humidity with standard diet). Post acclimatization animals were subjected to unilateral ischemia reperfusion (uIRI) model of acute kidney injury (AKI) in mice as described previously. [Rajendran, G et al., 2020, J Am Soc Nephrol 31(3) 501-516] Briefly, adult C57BL/6 mice (8 weeks old) were anesthetized with xylazine (10 mg/kg intraperitoneally) and ketamine (90-120 mg/kg intraperitoneally). Post anesthesia, a small incision in the midline of the abdomen was created and the left renal pedicle was occluded with a microaneurysm clamp, while the right kidney served as an internal control. The abdomen was temporarily partly closed by covering with clean stretch film, and the body temperature was monitored with a rectal probe and maintained at 37° C. using a heating pad. After 25 minutes, the clamps were removed, and reperfusion was visually confirmed. The abdomen was closed with a 6-0 suture and the skin with Michel miniature clips. Post-ischemia reperfusion injury (IRI), mice were randomly divided into two groups: 1. Vehicle treated (WT-Veh) and 2. Syrosingopine treated (WT-Syro). Treatment with syrosingopine or vehicle was initiated on day 2 post-IRI, a time point characterized by established kidney injury. Syrosingopine (Syro) was administered intraperitoneally (7.5 mg/kg body weight, prepared in mixture of DMSO and Tween 80) on alternate days (FIG. 1A). WT-Veh group was treated with mixture of DMSO+Tween 80 (Veh) and served as control group. On days 7 and 14 post-IRI, mice were sacrificed, and kidney damage was examined using standard methods of histopathological and molecular analysis.
Histopathological Analysis Isolated kidneys were fixed in buffered formalin for 24 h and paraffin blocks were papered using automated tissue processor (Leica Biosystems). 5 μm thick paraffin kidney sections were cut and stained with hematoxylin and eosin, and Picro Sirius red. Images were captured under microscope and were analysed using Image J (National Institutes of Health [NIH]). […] Fibrosis was assessed by the percentage of Picro-Sirius red^+ve area determined with ImageJ software (http://rsbweb.nih.gov/ij). For tubular injury scoring and quantification of Picro-Sirius red^+ve area ^310 and ^35 random visual fields of corticomedullary region, respectively were analyzed per kidney section for each sample at a magnification of ×200.
RNA and Protein Analyses RNA was isolated using Trizol from contralateral (uninjured right kidney) and IR (post unilateral clamping left kidney) kidneys and used for real-time quantitative PCR (qPCR) analysis of fibrosis and inflammatory related genes. 18S was used to normalize mRNA.
Total RNA was extracted using TRIzol reagent (n=4). Bulk RNAseq was performed by Admera Health. RNA integrity was checked with an Agilent Technologies 2100 Bioanalyzer. Poly(A) RNA sequencing libraries were prepared. Paired-ended sequencing was performed on an Illumina sequencing system. FastQC (version v0.11.8) was applied to check the quality of raw reads. Trimmomatic (version v0.38) was applied to cut adaptors and trim low-quality bases with the default setting. STAR Aligner version 2.7.1a was used to align the reads. Picard tools (version 2.20.4) was applied to mark duplicates of mapping. The StringTie version 2.0.4 was used to assemble the RNA-Seq alignments into potential transcripts. The featureCounts (version 1.6.0)/HTSeq was used to count mapped reads for genomic features such as genes, exons, promoter, gene bodies, genomic bins and chromosomal locations. The De-Seq2 (version 1.14.1) was used to do differential analysis.

Experiment [2] has as its system THP-1 monocyte adhesion to HPAECs. Briefly: Endothelial-monocyte cell adhesion assay. It is filed as cell-based, human. To be noted: 5 μM; hypoxia-reoxygenation and IL-1β; 90 min incubation; vs vehicle. On the procedure:
(§1) To assess whether MCT4 inhibition acts cell-autonomously in ECs to suppress pro-inflammatory responses, we performed in vitro experiments in which human primary pulmonary artery endothelial cells (HPAECs) were activated by 18 hours exposure to hypoxia (0.5% O2), followed by reoxygenation for 8 hours in the presence of IL-1β treatment (1 ng/mL) (FIG. 11A). To inhibit MCT4, we first used syrosingopine at concentration of 5 μM, which diminished lactate secretion, as indicated by reduction in extracellular lactate levels (FIG. 20A). […] Consistent responses were observed when we used siRNA against MCT4. […] (FIGS. 11D and E).
Human primary pulmonary artery ECs (HPAECs) were obtained from ATCC and grown on gelatin-coated dishes in Endothelial Cell Basal Medium-2 (Lonza, Catalog #CC-3156) supplemented with EGM-2 SingleQuots Supplements (Lonza, Catalog #CC-4176). MCT4 siRNA was purchased from Qiagen (FlexiTube GeneSolution GS9123 for SLC16A3; Catalog #1027416). AllStars negative control siRNA (Qiagen) was used as control siRNA. HiPerFect transfection reagent (Qiagen, Catalog #301707) was used for siRNA transfection experiments. […]
Endothelial-monocyte cell adhesion assay. […] After 90 minutes, floating cells were removed, and fluorescent imaging was performed with quantification of the adhered monocytes using Fiji image J.

The subject of experiment [3] is PHD^TiEC mice, post-ischemic kidney. Briefly: Unilateral renal IRI in PHD^TiEC mice, post-ischemic treatment. It is filed as in vivo, mouse. As to conditions: day 14 post uIRI. The text has this: As the primary metabolic response of the post-ischemic endothelium to HIF stabilization in the context of PHD inactivation was increased glycolysis, we next focused on this aspect. While increased lactate generation and efflux via the transporter MCT4 represent the final steps of hypoxia-induced glycolysis, lactate export was recently shown to be among the four key steps controlling glycolytic flux. […] Indeed, immunofluorescence staining confirmed high expression of MCT4 protein in the post-ischemic kidney endothelium of PHD^TiEC (FIG. 10A and FIG. 19). We next sought to investigate whether increased endothelial MCT4 causally contributes to the maladaptive post-ischemic kidney repair observed in the PHD^TiEC mice. To this end, we used syrosingopine, a dual inhibitor of monocarboxylate transporters MCT1 and MCT4 (60-fold higher potency on MCT4), which leads to end-product inhibition of glycolysis. As depicted in FIG. 10B, PHD^TiEC mice were treated with syrosingopine or vehicle starting on day 2 after uIRI and then every other day until day 14 post uIRI. […] MCT4 inhibition diminishes endothelial derived pro-inflammatory responses induced by hypoxia-reoxygenation and IL-1
Male mice 8-10 weeks of age underwent renal IRI surgery as previously described [Torosyan R, et al. Hypoxic preconditioning protects against ischemic kidney injury through the IDO1/kynurenine pathway. Cell Rep. 2021;36(7):109547]. Anesthesia was induced by IP injection of xylazine (10 mg/kg IP) and ketamine (90-120 mg/kg IP). After making a small midline abdominal incision, the left renal pedicle was occluded by applying a microaneurysm clamp for 25 minutes, while the right kidney was kept intact as an internal control in the unilateral IRI. For bilateral renal IRI, clamps were applied in both renal pedicles for 23 minutes. After the specified time, the clamps were removed, and reperfusion was visually confirmed. The incision site was closed with a 6-0 suture followed by the closure of the skin wound with Michel miniature clips. Throughout the surgical procedure, body temperature was monitored by a rectal probe and controlled with a heating pad at 37° C.
For in vivo MCT4 inhibition studies, mice were treated with syrosingopine (7.5 mg/kg) or vehicle starting on day 2 post IRI every other day until dissection on day 14 post IRI.
(§2) DNA and RNA were extracted and used for genomic or real-time PCR analysis, as previously described [Majmundar A J, et al. Hypoxia-Inducible Factors and the Response to Hypoxic Stress. Mol Cell. 2010; 40(2):294-309]. Real-time PCR was run in the QuantStudio 3 Real-Time PCR system (Applied Biosystems) using SYBR green or TaqMan PCR Master Mix. 18S rRNA was used for normalization.
For the histological examination, kidneys were fixed in 10% formalin buffer and paraffin blocks were prepared. To assess tubular damage and interstitial fibrosis, 5-μm transverse plane kidney sections were separately stained with hematoxylin and eosin (H&E) and Picro-Sirius red. […] Fibrosis was assessed by the percentage of Picro-Sirius red^+ve area determined with ImageJ software (http://rsbweb.nih.gov/ij). For tubular injury scoring and quantification of Picro-Sirius red^+ve area ^310 and ^35 random visual fields of corticomedullary region, respectively were analyzed per kidney section for each sample at a magnification of ×200.

A further experiment has as its system HPAECs. The experiment is described as follows: Lactate measurements in HPAEC media. It counts as cell-based, human. To be noted: 5 μM, 24 hours; vs vehicle (DMSO). On the procedure: Lactate measurements. […] Then, cell media were collected, and lactate levels were measured by a Lactate assay kit (Sigma, Catalog #MAK064) following the kit's instruction and protocol.

The target in the next experiment is T1, MCT4 (Homo sapiens, UniProt O15427).
T1 sequence (O15427 2-465 limits assumed): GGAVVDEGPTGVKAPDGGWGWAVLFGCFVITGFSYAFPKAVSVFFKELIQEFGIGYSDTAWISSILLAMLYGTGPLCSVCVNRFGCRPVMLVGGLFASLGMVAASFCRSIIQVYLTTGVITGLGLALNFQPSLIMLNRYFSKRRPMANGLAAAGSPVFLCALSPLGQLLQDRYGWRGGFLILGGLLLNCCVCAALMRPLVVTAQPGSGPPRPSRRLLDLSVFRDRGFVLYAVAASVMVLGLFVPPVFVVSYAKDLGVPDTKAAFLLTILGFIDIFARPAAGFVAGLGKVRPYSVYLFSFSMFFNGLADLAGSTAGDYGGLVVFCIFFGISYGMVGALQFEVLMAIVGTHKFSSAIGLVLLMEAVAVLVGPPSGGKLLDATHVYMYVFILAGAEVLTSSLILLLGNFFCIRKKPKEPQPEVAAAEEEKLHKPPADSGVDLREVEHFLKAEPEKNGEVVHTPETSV
T1 sequence (P35613 140-385 partner limits assumed): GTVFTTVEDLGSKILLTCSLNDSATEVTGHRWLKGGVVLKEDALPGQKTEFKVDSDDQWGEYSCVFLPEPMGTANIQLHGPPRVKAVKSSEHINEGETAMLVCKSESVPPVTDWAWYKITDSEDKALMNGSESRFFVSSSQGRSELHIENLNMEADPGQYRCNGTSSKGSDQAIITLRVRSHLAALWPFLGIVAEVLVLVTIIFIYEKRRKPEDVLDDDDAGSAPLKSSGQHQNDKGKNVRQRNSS
To be noted: dual MCT1/MCT4 inhibitor; cited from earlier work.

Experiment [4] concerns human primary pulmonary artery endothelial cells (HPAECs). Briefly: EC adhesion molecule mRNA in HPAECs activated by hypoxia/reoxygenation and IL-1β. It is filed as cell-based. To be noted: 5 μM; hypoxia 0.5% O2 18 h, reoxygenation 8 h with IL-1β 1 ng/mL; vs vehicle. The protocol:
as §1, §2
Human primary pulmonary artery ECs (HPAECs) were obtained from ATCC and grown on gelatin-coated dishes in Endothelial Cell Basal Medium-2 (Lonza, Catalog #CC-3156) supplemented with EGM-2 SingleQuots Supplements (Lonza, Catalog #CC-4176). MCT4 siRNA was purchased from Qiagen (FlexiTube GeneSolution GS9123 for SLC16A3; Catalog #1027416). […]

The mark [5] stands for this setting: day 7 and day 14 post IRI, 7.5 mg/kg IP, vs vehicle, 7.5 mg/kg.
The mark [6] stands for this setting: 7.5 mg/kg every other day from day 2, vs vehicle.

With `CCOC(=O)Oc1c(OC)cc(C(=O)O[C@@H]2C[C@@H]3CN4CCc5c([nH]c6cc(OC)ccc56)[C@H]4C[C@@H]3[C@H](C(=O)OC)[C@H]2OC)cc1OC` [syrosingopine], in experiment [1] (setting [5]), the “Icam1 mRNA level in IR kidney (qPCR)” value is listed as “substantially lower levels; also recorded: significant reduction”, the “Loxl2 mRNA level in IR kidney (qPCR)” value is “substantially lower levels; also recorded: significant reduction”, the “Tgfβ1 mRNA level in IR kidney (qPCR)” value is given as “substantially lower levels; also recorded: significant reduction” and the “Vcam1 mRNA level in IR kidney (qPCR)” value is given as “substantially lower levels; also recorded: significant reduction”. Also, the “Picro-Sirius red stained area (fibrosis), image analysis” value in experiment [1] (day 7 and day 14 post IRI, vs vehicle-treated controls) is listed as “significantly less staining”. Besides, the tubular injury scoring result in experiment [1] (day 7 and day 14 post-IRI kidneys, 7.5 mg/kg IP, vs vehicle, 7.5 mg/kg) was “less injury; also recorded: reduced tubular damage”. Also, the “genes associated with pro-inflammatory pathways (bulk RNA-seq)” value in experiment [1] (day 7 and day 14 post-IRI kidneys, vs vehicle) was “suppression”. Besides, in experiment [1] (day 7 post IRI, vs vehicle), the “reduction in fibrosis assessed by Picro Sirius red staining” value is given as 25%. Further, the “reduction in fibrosis assessed by Picro Sirius red staining” value in experiment [1] (day 14 post IRI, vs vehicle) was found to be 62%. Besides, the “perfusion of IR kidney (visual)” value in experiment [1] (day 14 post IRI, vs vehicle, 7.5 mg/kg) is listed as “improved perfusion”. Besides, in experiment [1] (day 14 post IRI, vs vehicle, listed as Syrosingopine, 7.5 mg/kg), the “perfusion of IR kidney (visual)” value is recorded as “visually better perfused”. Moreover, in experiment [1] (day 14 post-IRI kidneys, vs vehicle), the “genes of metabolic pathways, oxidative phosphorylation and fatty acid metabolism (bulk RNA-seq)” value was “significantly up-regulated; also recorded: upregulated”. For the same compound, the “reduction of adhesion of monocytes (THP-1 cells) to HPAECs” value in experiment [2] is recorded as roughly 48%. In experiment [3] (setting [6]), the “reduction in collagen accumulation (Picro-Sirius red)” value is given as roughly 51% and the “reduction in tubular injury scoring” value is listed as roughly 37%. In addition, in experiment [3] (vs vehicle treated group), the “Acta2 mRNA level” value is listed as “significantly downregulated”, the “Loxl2 mRNA level” value is on record as “significantly downregulated” and the “Tgfb1 mRNA level” value is on record as “significantly downregulated”. Besides, the extracellular lactate levels entry with HPAECs is “reduction”. The “higher potency towards MCT4 than MCT1” value on MCT4 is 60 fold. In addition, in experiment [4], the “ICAM1 mRNA expression” value was “significantly suppressed” and the “VCAM1 mRNA expression” value is on record as “significantly suppressed”.
